Among the data in US9765067B2, “Thiophen-2-yl-pyridin-2-yl-1H-pyrazole-4-carboxylic acid derivatives and the use thereof as soluble guanylate cyclase activators” (Novartis AG, priority 2014, dated 2017) are EC50 values, retold here.

For the experiment, the target named is T1, soluble guanylate cyclase (human GUCYA3/GUCYB3) overexpressed in CHO cells (Homo sapiens, UniProt Q02108+Q02153).
T1 construct: expressed in transfected cells
T1 sequence (Q02108 1-690 partner): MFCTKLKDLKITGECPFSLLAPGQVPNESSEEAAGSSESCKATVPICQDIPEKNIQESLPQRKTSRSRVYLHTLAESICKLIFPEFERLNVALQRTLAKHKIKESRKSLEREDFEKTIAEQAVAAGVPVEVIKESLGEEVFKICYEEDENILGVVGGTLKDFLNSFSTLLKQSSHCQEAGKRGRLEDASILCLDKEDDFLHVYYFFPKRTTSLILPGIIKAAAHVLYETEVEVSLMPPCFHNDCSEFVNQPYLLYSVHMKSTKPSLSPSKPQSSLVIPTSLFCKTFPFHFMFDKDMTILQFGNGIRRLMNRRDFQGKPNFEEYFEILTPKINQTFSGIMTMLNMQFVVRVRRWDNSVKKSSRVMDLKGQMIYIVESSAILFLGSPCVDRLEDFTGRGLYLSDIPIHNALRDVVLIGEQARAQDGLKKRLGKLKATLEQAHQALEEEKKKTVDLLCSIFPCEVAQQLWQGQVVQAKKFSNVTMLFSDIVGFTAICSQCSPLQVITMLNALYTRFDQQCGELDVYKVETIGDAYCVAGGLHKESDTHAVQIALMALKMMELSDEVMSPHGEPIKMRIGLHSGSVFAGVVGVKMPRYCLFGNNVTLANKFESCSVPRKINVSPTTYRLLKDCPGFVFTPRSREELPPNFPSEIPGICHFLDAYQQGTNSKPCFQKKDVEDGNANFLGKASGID
T1 sequence (Q02153 1-619): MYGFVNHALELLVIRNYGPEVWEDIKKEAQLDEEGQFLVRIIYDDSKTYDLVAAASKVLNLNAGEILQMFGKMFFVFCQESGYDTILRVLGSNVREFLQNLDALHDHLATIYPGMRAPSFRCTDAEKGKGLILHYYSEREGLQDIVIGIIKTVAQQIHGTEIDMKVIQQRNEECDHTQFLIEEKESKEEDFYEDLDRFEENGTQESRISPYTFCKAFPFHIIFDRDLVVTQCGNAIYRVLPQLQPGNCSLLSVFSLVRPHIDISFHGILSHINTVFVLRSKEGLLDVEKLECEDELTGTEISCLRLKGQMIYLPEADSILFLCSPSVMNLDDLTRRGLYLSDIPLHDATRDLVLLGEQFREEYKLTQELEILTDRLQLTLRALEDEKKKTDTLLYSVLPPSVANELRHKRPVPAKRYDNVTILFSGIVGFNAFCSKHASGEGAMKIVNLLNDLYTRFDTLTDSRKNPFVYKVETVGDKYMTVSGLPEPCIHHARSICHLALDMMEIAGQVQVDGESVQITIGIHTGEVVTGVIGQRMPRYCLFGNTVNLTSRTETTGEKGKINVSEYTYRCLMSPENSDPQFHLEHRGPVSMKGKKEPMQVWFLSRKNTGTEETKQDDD
Nature of the experiment: CHO cellular assay (cGMP production, HTRF). The format is cell-based. The note with it: CHO K1 clone 8E10 overexpressing human sGC, Cisbio HTRF, 1 h room temperature, 1 mM IBMX, 20 uM ODQ, minimum quantification limit 0.5 nM. The source says:
Chinese hamster ovary (CHO) cells overexpressing soluble guanylate cyclase were generated to test the effect of sGC activators in a cellular context. Human cDNAs for GUCYA3 (RefSeq: NM_000856.3) and GUCYB3 (RefSeq: NM_000857.1) were amplified by PCR from a HUVEC (Human Umbilical Vein Endothelial Cells) cDNA library and cloned into mammalian expression vectors. CHO K1 cells (ATCC CCL-61) were transfected using Lipofectamine 2000 following manufacturer's instructions and stably expressing clones were identified by antibiotic selection. CHO GUCY clone 8E10 was used for subsequent experiments.
Cells were seeded at a density of 3000 cells/well in white 384-well proxyplates (Perkin Elmer) and incubated overnight, then the medium was removed and cells were washed with assay buffer (HBSS, 0.1% BSA, 1 mM IBMX, 20 uM ODQ). sGC activators were serially diluted in DMSO, then diluted in assay buffer prior to adding to cells (10 ul/well, final DMSO concentration 0.5%). Cells were incubated with compounds for 1 h room temperature, then assayed for cGMP production using Cisbio cGMP HTRF kit (62GM2PEC) according to manufacturer's instructions.
The EC50s are calculated based on the amount of cGMP interpolated from the standard curve, using a 4-parameter sigmoidal dose-response.
Background: In TR-FRET formats the signal depends on donor and acceptor labels being close together.

For `CCc1cc(COc2ccc(C3CCN(CC(F)(F)F)CC3)cc2C)c(-c2cccc(-n3ncc(C(=O)O)c3C(F)(F)F)n2)s1` [Example 6-17, 1-(6-(5-Ethyl-3-((2-methyl-4-(1-(2,2,2-trifluoroethyl)piperidin-4-yl)phenoxy)methyl)thiophen-2-yl)pyridin-2-yl)-5-(trifluoromethyl)-1H-pyrazole-4-carboxylic acid], the midpoint of the response, the EC50, lay at 14 nM.

As to `CCc1c(C)sc(-c2cccc(-n3ncc(C(=O)O)c3C(F)(F)F)n2)c1COc1ccc(C2CCN(CC(F)(F)F)CC2)cc1C` [Example 6-18, 1-(6-(4-Ethyl-5-methyl-3-((2-methyl-4-(1-(2,2,2-trifluoroethyl)piperidin-4-yl)phenoxy)methyl)thiophen-2-yl)pyridin-2-yl)-5-(trifluoromethyl)-1H-pyrazole-4-carboxylic acid], the EC50 came out at 2.4 nM.

For `O=C(O)c1cnn(-c2cccc(-c3sccc3COc3ccc(C4CCN(C(=O)C5CC5)CC4)cn3)n2)c1C(F)(F)F` [Example 6-19, 1-(6-(3-(((5-(1-(Cyclopropanecarbonyl)piperidin-4-yl)pyridin-2-yl)oxy)methyl)thiophen-2-yl)pyridin-2-yl)-5-(trifluoromethyl)-1H-pyrazole-4-carboxylic acid], the EC50 turned out to be 2 nM.

Compound `CCC(=O)N1CCC(c2ccc(OCc3ccsc3-c3cccc(-n4ncc(C(=O)O)c4C(F)(F)F)n3)c(Cl)c2)CC1` [Example 7, 1-(6-(3-((2-Chloro-4-(1-propionylpiperidin-4-yl)phenoxy)methyl)thiophen-2-yl)pyridin-2-yl)-5-(trifluoromethyl)-1H-pyrazole-4-carboxylic acid] yielded an EC50 not above 0.5 nM.

Compound `O=C(O)c1cnn(-c2cccc(-c3sccc3COc3ccc(C4CCN(C(=O)C5CC5)CC4)cc3Cl)n2)c1C(F)(F)F` [Example 8, 1-(6-(3-((2-Chloro-4-(1-(cyclopropanecarbonyl)piperidin-4-yl)phenoxy)methyl)thiophen-2-yl)pyridin-2-yl)-5-(trifluoromethyl)-1H-pyrazole-4-carboxylic acid] registered an EC50 not above 0.5 nM.

The compound `Cc1cc(C2CCN(C(=O)C3CC3)CC2)ccc1OCc1ccsc1-c1cccc(-n2ncc(C(=O)O)c2C)n1` [Example 9, 1-(6-(3-((4-(1-(Cyclopropanecarbonyl)piperidin-4-yl)-2-methylphenoxy)methyl)thiophen-2-yl)pyridin-2-yl)-5-methyl-1H-pyrazole-4-carboxylic acid] registered an EC50 not above 0.5 nM.

`CCc1cc(OCc2ccsc2-c2cccc(-n3ncc(C(=O)O)c3C)n2)ccc1C1CCN(C(=O)C2CC2)CC1` [Example 10-1, 1-(6-(3-((4-(1-(Cyclopropanecarbonyl)piperidin-4-yl)-3-ethylphenoxy)methyl)thiophen-2-yl)pyridin-2-yl)-5-methyl-1H-pyrazole-4-carboxylic acid] gave an EC50 not above 0.5 nM.

On to `CCc1cc(OCc2ccsc2-c2cccc(-n3ncc(C(=O)O)c3CC)n2)ccc1C1CCN(C(=O)C2CC2)CC1` [Example 10-2, 1-(6-(3-((4-(1-(Cyclopropanecarbonyl)piperidin-4-yl)-3-ethylphenoxy)methyl)thiophen-2-yl)pyridin-2-yl)-5-ethyl-1H-pyrazole-4-carboxylic acid], for which the EC50 was not above 0.5 nM.

The compound `Cc1cc(COc2ccc(C3CCN(C(=O)C4CC4)CC3)cc2C)c(-c2cccc(-n3ncc(C(=O)O)c3C)n2)s1` [Example 10-3, 1-(6-(3-((4-(1-(Cyclopropanecarbonyl)piperidin-4-yl)-2-methylphenoxy)methyl)-5-methylthiophen-2-yl)pyridin-2-yl)-5-methyl-1H-pyrazole-4-carboxylic acid] returned an EC50 not above 0.5 nM.

Consider `CCc1cc(OCc2cc(C)sc2-c2cccc(-n3ncc(C(=O)O)c3C)n2)ccc1C1CCN(C(=O)C2CC2)CC1` [Example 10-4, 1-(6-(3-((4-(1-(Cyclopropanecarbonyl)piperidin-4-yl)-3-ethylphenoxy)methyl)-5-methylthiophen-2-yl)pyridin-2-yl)-5-methyl-1H-pyrazole-4-carboxylic acid], for which the EC50 was not above 0.5 nM.

As to `CCc1cc(OCc2c(C)csc2-c2cccc(-n3ncc(C(=O)O)c3C(F)(F)F)n2)ccc1C1CCN(C(=O)C2CC2)CC1` [Example 10-5, 1-(6-(3-((4-(1-(Cyclopropanecarbonyl)piperidin-4-yl)-3-ethylphenoxy)methyl)-4-methylthiophen-2-yl)pyridin-2-yl)-5-(trifluoromethyl)-1H-pyrazole-4-carboxylic acid], the EC50 was not above 0.5 nM.

Turning to `CCc1c(C(=O)O)cnn1-c1cccc(-c2sc(C)c(C)c2COc2ccc(C3CCN(C(=O)C4CC4)CC3)cc2C)n1` [Example 10-6, 1-(6-(3-((4-(1-(Cyclopropanecarbonyl)piperidin-4-yl)-2-methylphenoxy)methyl)-4,5-dimethylthiophen-2-yl)pyridin-2-yl)-5-ethyl-1H-pyrazole-4-carboxylic acid], the EC50 was not above 0.5 nM.

`Cc1c(OCc2ccsc2-c2cccc(-n3ncc(C(=O)O)c3C(F)(F)F)n2)ccc2c1CCN(Cc1ccccn1)C2` [Example 10-7, 1-(6-(3-(((5-Methyl-2-(pyridin-2-ylmethyl)-1,2,3,4-tetrahydroisoquinolin-6-yl)oxy)methyl)thiophen-2-yl)pyridin-2-yl)-5-(trifluoromethyl)-1H-pyrazole-4-carboxylic acid] yielded a half-maximal effective concentration (EC50) of 37 nM.

Compound `Cc1cc(C2CCN(C(=O)C3CC3)CC2)ccc1OC(C)c1ccsc1-c1cccc(-n2ncc(C(=O)O)c2C(F)(F)F)c1` (stereo not drawn) [Example 10-8, 1-(3-(3-(1-(4-(1-(Cyclopropanecarbonyl)piperidin-4-yl)-2-methylphenoxy)ethyl)thiophen-2-yl)phenyl)-5-(trifluoromethyl)-1H-pyrazole-4-carboxylic acid] displayed an EC50 of 15 nM.

As for `Cc1cc(C2CCN(CC(F)(F)F)CC2)ccc1OCc1c(C)csc1-c1cccc(-n2ncc(C(=O)O)c2C(F)(F)F)n1` [Example 10-9, 1-(6-(4-methyl-3-((2-methyl-4-(1-(2,2,2-trifluoroethyl)piperidin-4-yl)phenoxy)methyl)thiophen-2-yl)pyridin-2-yl)-5-(trifluoromethyl)-1H-pyrazole-4-carboxylic acid], the EC50 amounted to 57 nM.

As to `Cc1cc(C2CCN(C(=O)CC3CC3)CC2)ccc1OCc1ccsc1-c1cccc(-n2ncc(C(=O)O)c2C(F)(F)F)n1` [Example 11, 1-(6-(3-((4-(1-(2-Cyclopropylacetyl)piperidin-4-yl)-2-methylphenoxy)methyl)thiophen-2-yl)pyridin-2-yl)-5-(trifluoromethyl)-1H-pyrazole-4-carboxylic acid], a half-maximal effect (EC50) was put at 2 nM. This EC50 lies about 28-fold lower than the previous one.

Consider `Cc1cc(C2CCN(C(=O)C3CCC3)CC2)ccc1OCc1ccsc1-c1cccc(-n2ncc(C(=O)O)c2C(F)(F)F)n1` [Example 12-1, 1-(6-(3-((4-(1-(Cyclobutanecarbonyl)piperidin-4-yl)-2-methylphenoxy)methyl)thiophen-2-yl)pyridin-2-yl)-5-(trifluoromethyl)-1H-pyrazole-4-carboxylic acid], for which the 50% effective concentration (EC50) is not above 0.5 nM.

In turn, `Cc1cc(C2CCN(C(=O)C3CC3)CC2)ccc1OCc1ccsc1-c1cccc(-n2ncc(C(=O)O)c2C(F)(F)F)n1` [Example 12-2, 1-(6-(3-((4-(1-(Cyclopropanecarbonyl)piperidin-4-yl)-2-methylphenoxy)methyl)thiophen-2-yl)pyridin-2-yl)-5-(trifluoromethyl)-1H-pyrazole-4-carboxylic acid] gave an EC50 of 4.5 nM. This counts as single-digit nanomolar.

One may read the EC50 as the concentration needed to bring the measured effect to its halfway point. Lower therefore signals a more potent agent.
